According to patent US20070179085A1, “MODULATION OF RHAMM-CAVEOLIN/LIPID RAFT INTERACTIONS TO AFFECT DEVELOPMENT, RESPONSES TO TISSUE INJURY, ANGIOGENESIS, TUMORIGENESIS, METASTASIS AND GROWTH FACTOR/CYTOKINE RESPONSES” (priority 2005, published 2007):

Tests used:
70 kDa RHAMM [1] = test: GPI-anchor identification: Triton X-114 phase separation, PI-PLC, surface biotin labeling; assay type: cell-based, rat; settings: co-treatment with PDGF-BB and mannosamine 10 mM for six hours
Description: Differential solubilization and temperature-induced Triton X-114 phase separation was performed as briefly described with 75-100 μg of membrane protein. Cells were grown to confluency and quiesced for 48 hours at which point cells were harvested for membrane protein. Some samples were incubated with PI-PLC for 1 hour at 37° C. before proceeding with Triton X-114 phase separation. PI-PLC was used at 0.375 U/100 μg membrane protein. In separate experiments Mannosamine-HCl was used at 10 mM during 6 hour PDGF-BB treatment. For radiolabel experiments, cells were grown to confluency and quiesced for 48 hours in inositol-free media and then incubated with 4 μCi/mL of ^3H myo-inositol during 6 hour PDGF-BB treatment. For surface biotinylation experiments, media was removed after treatment and replaced with 1 mg/ml biotin in defined media and incubated for 20 minutes at 37° C.

erk = test: Immunoblot for total and phosphorylated-erk in PDGF-BB stimulated SMC; assay type: cell-based, rat; settings: peptide pretreatment 24 hours, then 10-minute PDGF-BB
RHAMM:caveolin = test: Co-immunoprecipitation of RHAMM and caveolin-1 from SMC lysates; assay type: cell-based, rat; settings: peptide 24 hours prior to and during 6 hour PDGF-BB treatment
Description: For standard experiment, 100 μg of lysate was used. Samples were pre-cleared with 50 μl of Protein G-agarose for 60 minutes at room temperature while rotating then centrifuged at 13000 g for 5 minutes. The supernatant was transferred to a new tube and incubated with 1 μg of antibody overnight at 4° C. while rotating. The samples were then incubated with 20 μl of Protein G-agarose for 1 hour at 4° C. while rotating. Beads were collected by centrifugation (1 minute at high speed) and then washed three times with lysis buffer (50 mM Tris, pH 8.0/140 mM NaCl/[…]/0.4% Deoxycholate/protease inhibitor cocktail (Boehringer Manheim). The beads were resuspended in at least 40 μl of 2× Novex Sample Buffer and western blot was performed as per NUPAGE protocol (Invitrogen). Primary and secondary antibodies were diluted (R36: 5 μg/ml, Caveolin-1: 0.25 μg/ml) and pre-incubated together over-night before use. For biotin labeling experiments, 6 μl of streptavidin-agarose was added to 25 μg of protein and incubated for 3 hours at 4° C. Beads were collected by centrifugation at 13000 g for 1 minute, washed and resuspended in Novex sample buffer as above.
Therefore, peptides were used to interfere with RHAMM:caveolin to establish direct protein-protein interactions. […]

70 kDa RHAMM [2] = test: MBCD-mediated release of RHAMM from SMC (caveolar disruption); assay type: cell-based, rat; settings: MBCD 30 minutes, absence of PDGF-BB
Description: Caveolar disruption was performed as described below. Cells were grown to confluency in 150 mm dishes and quiesced for 48 hr. After 6 hr PDGF treatment, media was removed and replaced with 20 mm methyl-beta-cyclodextrin in TKM buffer (50 mM Tris-HCl, pH7.4, 25 mM KCl, 5 mM MgCl, 1 mM EDTA). Cells were incubated for 20-30 minutes at 37° C., and the cell-free supernatant was collected after centrifugation at 2000 g for 10 minutes.
Since the GPI anchor links to a hydrophobic lipid tail that inserts into the exoplasmic leaflet of the cell membrane, a liquid ordered arrangement is necessary to maintain its integrity. […] Methyl-beta-cyclodextrin (MBCD), a cell surface-specific cholesterol-extracting agent, can be used to disrupt lipid rafts and caveolae to release endogenous GPI-anchored proteins (Ilangumaran, Madore, McCabe). […] Proteins in the cholesterol-rich annulus are sensitive whereas those in the sphingolipid core are resistant to release by MBCD. SMC cultures were treated with MBCD for 30 minutes, and the cell free supernatant was collected. The supernatant was run by volume on SDS-PAGE and immunoblotted for RHAMM and urokinase-plasmingen activator receptor (uPAR), a defined GPI-anchored protein previously shown to be present in lipid domains. Without MBCD, RHAMM was not released into the supernatant in detectable amounts, irrespective of PDGF-BB treatment (FIG. 11a, lane 2 vs 4). […]

rat aortic SMC [3] = test: SMC proliferation (MTS assay); assay type: cell-based
Description: In order to determine the effect of PDGF-BB on SMC proliferation, 80% confluent and quiescent cultures of SMC were stimulated for 72 hours with varying doses of PDGF-BB (2-50 ng/ml) and cell number was determined using the MTS assay as described in Methods. A bell-shaped dose response curve was obtained with maximum stimulation of SMC proliferation at 10-25 ng/ml (FIG. 7d, *p<0.01 vs. control).
The effect of HA on SMC proliferation and modulation by PDGF-BB was also examined. SMC that were either maintained in serum-free medium or pre-stimulated with 10 ng/ml PDGF-BB for 24 hours were exposed to HA in serum-free medium at concentrations of 0.1-1000 μg/ml for 48 hours. […] As expected, baseline proliferation was increased in SMC cultures following exposure to 10 ng/ml PDGF-BB for 24 hours (FIG. 7e, *p<0.01 vs. non-stimulated cells). […] In order to determine the contribution of RHAMM to SMC proliferation induced by HA, SMC cultures were treated with R36 throughout the pre-stimulation period with PDGF-BB and subsequently during HA stimulation. Non-immune IgG was used as a negative control and a blocking anti-PDGF-BB antibody was used as a positive inhibitory control. Cell number was determined by MTS assay 48 hours after HA stimulation with and without antibody treatments. As noted before, PDGF-BB pretreatment increased baseline proliferation, FIG. 7e*p<0.01 vs. no PDGF), and HA stimulated a further 25% increase in proliferation, FIG. 7e**p<0.05 vs. PDGF, no HA). […] Anti-PDGF-BB antibody blocked 50% of the PDGF-mediated increase in baseline proliferation, FIG. 7e#p<0.01 anti-PDGF vs. normal IgG).

SMC = settings: 0.0 μg/ml of HA; previously demonstrated; cited from earlier work
rat aortic SMC [4] = test: SMC migration at leading edge of single scratch wounds (timelapse cinemicrography); assay type: cell-based
Description: Primary cultures of rat aortic SMC were established as previously described. […]
The medium of confluent SMC cultures was then changed to DMEM defined medium for 48 hours for quiescence. Migration of SMC at the leading edge of single scratch wounds of confluent cultures was determined using timelapse cinemicrography as previously described and summarized below. […] Media HA concentration was determined as described below. […]
SMC plated in DMEM complete medium were allowed to grow to confluence. After overnight quiescence, a single scratch wound was made in the center of the culture plate using a sterile cell scraper and fresh defined medium was added The motility of cells at the leading edge of these wounds was determined using timelapse cinemicrography (Metamorph, Universal Imaging Corporation, West Chester, Pa.) as previously described. Briefly, cells were monitored using a Nikon TE-300 inverted microscope (Nikon Instruments, Inc., Melville, N.Y.) to which a video camera (Hamamatsu CCD, Inc., Hamamatsu City, Japan) was attached. At least 20 cells per high power field were imaged every hour and the mean distance traveled per frame was measured to obtain mean cell velocities.

rat aortic SMC [5] = test: HA content of medium of SMC cultures (ELISA like assay); assay type: cell-based; settings: quiescent SMC treated 24 hours, normalized to total protein
Description: The medium of confluent SMC cultures was then changed to DMEM defined medium for 48 hours for quiescence. Migration of SMC at the leading edge of single scratch wounds of confluent cultures was determined using timelapse cinemicrography as previously described and summarized below. To observe the effect of HA on this migratory response to wounding, cultures were stimulated with varying concentrations of HA (0.1-100 μg/ml) and studied for 24 hours. For PDGF-BB stimulated HA synthesis experiments, quiescent SMC were stimulated with varying doses of PDGF-BB (2-100 ng/ml) for 24 hours. Media HA concentration was determined as described below. All experiments described below included 10 replicates and each experiment was repeated at least 3 times.
A modified ELISA assay was utilized for determination of HA concentration.
In order to determine the optimal concentration of PDGF-BB required to simulate HA synthesis in SMC, the HA content of medium from quiescent SMC treated for 24 hours with various concentrations of PDGF-BB was determined using an ELISA like assay for HA. Resulting values were normalized to the total protein content of the cultures. […] We therefore used this concentration of PDGF-BB for all subsequent experiments.

N[C@@H]1C(O)O[C@H](CO)[C@@H](O)[C@@H]1O (stereo partly drawn) [mannosamine]
presence of RHAMM in pellet phase after Triton X-114 fractionation (70 kDa RHAMM [1]): completely inhibited

CAV: caveolin scaffolding domain (aa 82-101) peptide fused to antenapedia sequence (RQIKIWFQNRRMKWKKDGIWKASFTTFTVTKYWFYR)
PDGF-BB-induced erk phosphorylation after peptide pretreatment (erk): inhibited
co-immunoprecipitation of RHAMM and caveolin-1 (RHAMM:caveolin): decreased co-immunoprecipitation

Methyl-beta-cyclodextrin [MBCD]
release of 70 kDa RHAMM into supernatant by MBCD (70 kDa RHAMM [2]): released into supernatant

RM: peptide of RHAMM caveolin-binding motif (KWRLL YEEL YDKTKPFQ) fused to antenapedia sequence RQIKIWFQNRRMKWKK (YDKTKPFQRQIKIWFQNRRMKWKK)
PDGF-BB-induced erk phosphorylation after peptide pretreatment (erk): inhibited
co-immunoprecipitation of RHAMM and caveolin-1 (RHAMM:caveolin): decreased co-immunoprecipitation

hyaluronan [HA]
proliferative response of SMC to HA without PDGF-BB pre-stimulation (rat aortic SMC [3]; HA 0.1-1000 μg/ml, 48 hours, serum-free medium): no proliferative response
HA concentration of maximal proliferative response (rat aortic SMC [3]; after pre-stimulation with 10 ng/ml PDGF-BB): 100 µg/mL
further increase in SMC proliferation in response to HA (rat aortic SMC [3]; after pre-stimulation with 10 ng/ml PDGF-BB for 24 hours, HA 48 hours): 25%
random migration of sub-confluent SMC cultures (SMC): increases their random migration
effect of exogenous HA on SMC migration after single scratch wounding (rat aortic SMC [4]; 0.001 μg/ml HA added to wounded cultures): further stimulation of SMC that continued up to 18 hours

B1: PDGF-BB: Platelet-Derived Growth Factor BB dimer, obtained from R & D Systems (protein, UniProt P01127 82-190, looked up)
Platelet-derived growth …: SLGSLTIAEPAMIAECKTRTEVFEISRRLIDRTNANFLVWPPCVEVQRCSGCCNNRNVQCRPTQVQLRPVQVRKIEIVRKKPIFKKATVTLEDHLACKCETVAAARPVT
modifications: homodimer BB
notes: Platelet-Derived Growth Factor BB dimer, obtained from R & D Systems
baseline SMC proliferation (rat aortic SMC [3]; 10 ng/ml PDGF-BB for 24 hours): increased
PDGF-BB dose of maximum stimulation of SMC proliferation (rat aortic SMC [3]; 72 hours, doses 2-50 ng/ml, bell-shaped curve): 10 to 25 ng/mL
PDGF-BB dose of maximal HA synthesis (rat aortic SMC [5]): 10 ng/mL
increase of mean cell velocity of SMC at leading edge of wounds (rat aortic SMC [4]; PDGF-BB 10 ng/ml vs non-stimulated control): two-fold
